For one series, the system named is Sprague Dawley rats. Put plainly: Clinically observable adverse effects of cationic alkyl moieties after subcutaneous bolus in rats (Table 1). The class given is in vivo, rat. As to conditions: tested at 3.0, 5.0 or 10 μmol/kg. The essentials:
(§1)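 Rats given subcutaneous bolus of cationic alkyl modifier in sterile water pH 4.5-5, starting 5.0 μmol/kg, raised to 10 μmol/kg if no swelling or lowered to 3.0 μmol/kg if swelling, 1-week wash-out. Monitored for lethargy, ataxia, swelling, discoloration closely for 4 h, then hourly.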

Assay in series [1]: as above
The class given is in vivo, rat. The note with it: male, Sprague-Dawley, rat, in vivo, sc, tested at 3.0, 5.0 or 10 μmol/kg, lethargy is considered maximum tolerated bolus dose, read-out: Lethargy* in n = 3. In outline: as §1

A further series deals with MC38 colon cancer cells. Nature of the series: Subcutaneous mouse model of colon cancer using MC38 cells (FIG. 12). The class given is in vivo, mice. As to conditions: combination with anti-tigit Ab 5 mg/kg IP twice a week, 2 cycles. The protocol: FIGS. 12A-12B. […] Error bars represent standard error of the mean. FIG. 12A) A diagram of the dose schedule for administration of immune checkpoint inhibitor (anti-tigit Ab) and SEQ ID NO: 31. FIG. 12 B) Tumor growth kinetics of 6-week-old male C57BL/6J mice (n=8-9 per group) that were subcutaneously inoculated with MC38 colon cancer cells (1,000,000 cells/mouse) in right flank. Starting from Day 4 post-inoculation, anti-tigit Ab was administered intraperitoneally at 5 mg/kg twice a week for 2 cycles; SEQ ID NO: 31 was administered subcutaneously at a bolus dose of 0.3 mg/kg (0.1 μmol/kg) once daily for 5 days (5 days on, 2 days off) for 3 cycles; or a combination of anti-tigit Ab (5 mg/kg IP twice a week; 2 cycles) and SEQ ID NO: 31 (0.3 mg/kg SC once a day for 5 days on and 2 days off; 3 cycles). The control group, which received only buffer, was dosed in the same manner as SEQ ID NO: 31 to establish the baseline tumor growth kinetics. […]
Animal care and treatment: Male C57BL/6J mice (6 weeks-old) were purchased from Kyudo (Saga, Japan) and maintained under a 12-hour light/12-hour dark cycle with free access to water and standard mouse diet (MF diet; Oriental Yeast Co., Ltd, Tokyo Japan). […] Tumor sizes were measured using calipers on Days 4, 7, 14, and Day 22 post-inoculation. […]

Series [2] concerns the target T1, Recombinant human NPRB extracellular domain - human IgG1 Fc fusion (NPRB-Fc) (human, UniProt P20594 23-458).
T1 construct: extracellular domain; Used at 50 nM in the fluorescence polarization assay; R1-T433 counts on the mature protein; also called natriuretic peptide receptor B; not shown: Human IgG1 heavy chain, amino acids E216-G446 (IMGT.org, EU numbering), Accn; P01857.2
T1 sequence (looked up): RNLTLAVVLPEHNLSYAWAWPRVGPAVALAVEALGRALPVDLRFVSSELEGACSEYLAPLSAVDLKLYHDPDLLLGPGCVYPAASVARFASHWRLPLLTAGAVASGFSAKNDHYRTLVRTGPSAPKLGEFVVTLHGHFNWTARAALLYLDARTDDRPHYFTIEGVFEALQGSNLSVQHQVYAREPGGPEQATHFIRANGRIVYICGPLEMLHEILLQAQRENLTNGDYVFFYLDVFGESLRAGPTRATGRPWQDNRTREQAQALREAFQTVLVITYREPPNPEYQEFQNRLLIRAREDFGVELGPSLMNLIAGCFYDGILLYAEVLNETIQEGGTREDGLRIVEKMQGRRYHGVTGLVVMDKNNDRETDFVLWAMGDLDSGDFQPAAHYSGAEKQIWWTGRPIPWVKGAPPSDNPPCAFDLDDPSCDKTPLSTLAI
Put plainly: Fluorescence polarization, 5 nM CNP-F* with 50 nM human NPRB. On the procedure:
(§2) In the presence of [SEQ ID.
(§3) Next, 1-L volume of SEQ ID. […] The plate was incubated at room temperature for 10 min. Fluorescence polarization was then measured on Flexstation 3 (excitation wavelength: 480 nm; emission wavelength: 525 nm and cutoff at 515 nm).
For orientation: Fluorescence polarisation rises when a labelled molecule tumbles more slowly, as on binding a larger partner.

In series [3] the target is T2, Recombinant human NPRA extracellular domain - human IgG1 Fc fusion (NPRA-Fc) (human, UniProt P16066 33-473).
T2 construct: extracellular domain; Expressed in Expi293 cells, Protein A purified; N1-L439 and C232 count on the mature NPRA, not on the precursor; also called Natriuretic Peptide Receptor A; not shown: Human IgG1 heavy chain, amino acids E216-G446 (IMGT.org, EU numbering), Accn; P01857.2
T2 sequence (looked up): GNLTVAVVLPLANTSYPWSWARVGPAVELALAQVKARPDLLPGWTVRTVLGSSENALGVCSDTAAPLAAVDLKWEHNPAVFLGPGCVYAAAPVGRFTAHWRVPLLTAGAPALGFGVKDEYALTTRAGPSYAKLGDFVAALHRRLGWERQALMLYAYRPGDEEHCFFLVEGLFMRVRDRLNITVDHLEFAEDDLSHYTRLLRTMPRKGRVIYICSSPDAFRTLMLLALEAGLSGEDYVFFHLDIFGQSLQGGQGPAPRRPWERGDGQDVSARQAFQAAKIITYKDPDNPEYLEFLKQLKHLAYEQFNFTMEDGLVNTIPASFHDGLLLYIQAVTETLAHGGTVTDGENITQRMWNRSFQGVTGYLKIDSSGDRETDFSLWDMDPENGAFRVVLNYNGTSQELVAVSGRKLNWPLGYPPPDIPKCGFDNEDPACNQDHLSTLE
Nature of the series: Fluorescence polarization, 5 nM CNP-F* probe with recombinant human NPRA-Fc.

Series [4] concerns the target T1, Recombinant human NPRB extracellular …. Put plainly: Fluorescence polarization competition: 150 nM SEQ ID NO: 31 against 5 nM CNP-F* on 50 nM human NPRB. On the procedure: as §2, §3

Bridge positions count the residues as written; N and C are the ends. Square brackets hold non-standard residues; d marks the D form. Ends that are not written are not given here. * marks the point of attachment. Palmitoyl = CCCCCCCCCCCCCCCC(=O)*; Dap = NC[C@H](N)C(=O)O; AEEA = NCCOCCOCC(=O)O

Consider `CCCCCCCCCCCCCCCC(=O)NCCOCCOCC(=O)NCCOCCOCC(=O)NCCOCCOCC(=O)N[C@H](CCCCN)C(=O)N[C@H](CCCCN)C(=O)O` [SEQ ID NO: 3, CH3(CH2)14(C═O)-Aeea-Aeea-Aeea-kk], for which the “Ataxia** in n = 3” value in the series on Sprague Dawley rats (ataxia is bolus dose limiting toxicity) is no less than 5 µmol/kg. For the same molecule, the “Swelling and/or Discoloration in n = 3” value in the series on Sprague Dawley rats (dose at which sign was seen) was no less than 3 µmol/kg. Besides, in series [1], the MTD was no less than 5 µmol/kg. The “Anti-tumor effect vs anti-tigit Ab monotherapy” value in the series with MC38 colon cancer cells was “outperformed the anti-tumor effect of anti-tigit Ab as a monotherapy”.

B1: CNP-F* probe (C-type natriuretic peptide bound to 5(6)-Carboxyfluorescein) (peptide)
peptide: {5(6)‑carboxyfluorescein}-GLSKGCFGLKLDRIGSMSGLGC
modifications: disulfide 6-22 (inferred)
notes: Made by solid phase synthesis; used at 5 nM in the fluorescence polarization assay; also called CNP probe; CNP based probe
As to B1, the values for the binding result in series [2] and in series [3] were “binds” and “no binding”, respectively.

B2: SEQ ID NO: 31, cationic alkyl modified CNP derivative CH3(CH2)14(C=O)-Aeea-Aeea-Aeea-Dap-Dap-GLSKGCFGLKLDRIGSQSGLGC (disulfide bond) (peptide)
peptide: Palmitoyl-[AEEA][AEEA][AEEA][Dap][Dap]GLSKGCFGLKLDRIGSQSGLGC
modifications: disulfide 11-27
notes: The entry holds non-natural residues (Aeea, Dap) before the 22 residues of the CNP part
Turning to B2, the binding result in series [4] is reported as “binds”.
